The values that follow come from patent USRE38332E1, “Selected soluble esters of hydroxyl-containing indolocarbazoles” (Cephalon, Inc., priority 1995, dated 2003).

Data set [1] can be described thus: In vitro metabolism of I-5 esters in rat liver S-9 fraction. The conditions noted are these: 2 mg/mL protein, 5000 ng/mL. In kind it is in vitro ADME. The protocol: (§1) Rat and human liver S-9 fractions (a mixture of cytosol and microsomes) were frozen immediately after preparation. Each aliquot was thawed once for use in incubations. Stock solutions of the indolocarbazole esters were prepared in DMSO. These were used to prepare standard curves in heat inactivated S-9 fraction that had been diluted with 0.2M phosphate buffer, pH 7.4 to yield a 2 mg/mL protein concentration. Heat inactivated S-9 was divided into 500 μL aliquots, mixed with an aliquot of the internal standard, and spiked with the respective stock ester solutions to prepare the standard curve. Incubations containing liver S-9 fraction were prepared by diluting the S-9 fraction in 0.2M phosphate buffer, pH 7.4 to yield a 2 mg/mL protein concentration. Samples (500 μL) were placed in screw-cap vials, mixed with internal standard, and spiked with stock solutions of the respective esters to yield a nominal concentration of 5000 ng/mL.
Incubations were then performed at 37° C. in a shaking water bath for 0, 0.5, 1, 2, 5, 10, 15, 30, and 60 minutes and quenched by addition of 5 mL methylene chloride. All tubes (standards and experimentals) were extracted for 15 minutes by shaking, and centrifuged. The methylene chloride layer was removed, dried under a stream of nitrogen, and reconstituted in DMSO. Fifty μL of the reconstituted extracts were analyzed by reverse-phase HPLC with detection at 290 nm. The mobile phase and gradient conditions are given below: […]

A short description of data set [2]: In vitro metabolism of I-5 esters in human liver S-9 fraction. The format is in vitro ADME. Conditions: 2 mg/mL protein. As to the method:
as §1
Incubations were then performed at 37° C. in a shaking water bath for 0, 0.5, 1, 2, 5, 10, 15, 30, and 60 minutes and quenched by addition of 5 mL methylene chloride. All tubes (standards and experimentals) were extracted for 15 minutes by shaking, and centrifuged. […] Fifty μL of the reconstituted extracts were analyzed by reverse-phase HPLC with detection at 290 nm. […]

Data set [3] can be described thus: In vivo metabolism and intravenous pharmacokinetics of I-5 esters in male Sprague-Dawley rats. Conditions: intravenous, rat; for hydrolysis to indolocarbazole I-5 in vivo: 5 mg/kg dose of I-5 equivalent. As to the method:
Groups of 12 male Sprague-Dawley rats were administered either DMAB dihydrochloride or β-alaninate hydrochloride through the lateral tail vein in a vehicle consisting of 0.05M acetate buffer, pH 5.0 containing 20% polyethylene glycol. The volume of the dosing solution was adjusted on the basis of body weight to deliver a 5 mg/kg dose of indolocarbazole I-5 after complete hydrolysis of the respective indolocarbazole ester. At 5, 30, 60, and 120 minutes after injection, the animals were anesthetized with carbon dioxide and a sample of whole blood was obtained by cardiac puncture. The blood was placed into a 10 mL heparinized tube containing 100 μL 50% potassium fluoride (an inhibitor of plasma esterases). Following centrifugation, the resulting plasma was frozen in a dry-ice/isopropanol bath and kept frozen at −90° C. prior to analysis.
For analysis, the samples were thawed, internal standard was added, and the mixture was extracted with 5 mL methylene chloride. Standards in rat plasma were prepared as described previously. All tubes (standards and experimentals) were extracted for 15 minutes by shaking, and centrifuged. The methylene chloride layer was removed, dried under a stream of nitrogen, and reconstituted in DMSO. Fifty μL of the reconstituted extracts were analyzed by reverse-phase HPLC with detection at 290 nm. The mobile phase and gradient conditions are the same as those given in Example 17.

Data set [4] in a line: Solubility of the esters at 1 mg/ml in water and buffer solutions. Conditions: for solubility in Tris buffer: 10 mM Tris buffer pH 9; for solubility in acetate buffer: 10 mM acetate buffer pH 4; for solubility in phosphate buffer: 10 mM phosphate buffer pH 7; for solubility in water: water (Solution 1).
Description: Indolocarbazole esters were dissolved in water, dimethylsulfoxide (DMSO) and the following buffer solutions to determine solubility and to observe conversion to indolocarbazole I-5. Samples were analyzed by HPLC using UV detection at 290 nm.
Solution 2 was a 10 mM acetate buffer at pH 4 which was prepared by weighing 0.68 g of sodium acetate 3H2O into 500 ml of water and adjusting the pH with acetic acid.
Solution 3 was a 10 mM phosphate buffer, pH 7, which was prepared by weighing 0.30 g of monobasic sodium phosphate and 0.36 g of dibasic sodium phosphate into 500 ml of water, stirring until completely dissolved, and adjusting the pH with hydrochloric acid.
Solution 4 was a 10 mM Tris buffer, pH 9, which was prepared by weighing 0.79 g of Tris (tris(hydroxymethyl)aminomethane hydrochloride) into 500 ml of water, stirring until completely dissolved, and adjusting the pH with sodium hydroxide.
Sample solutions were prepared by weighing 0.5-1 mg of the indolocarbazole ester into an amber 1.5 ml autosampler vial, to which the appropriate quantity of one of the buffer solutions was added, in order to achieve a final concentration of 1 mg/ml. The sample solutions were vortexed and sonicated for 10 minutes. Fifty μl aliquots were placed into 1.5 ml amber autosampler vials. The reaction was quenched at a selected time interval by addition of 450 μl DMSO to the vial.
Data set [5] relates to ChAT activity in spinal cord cultures. Description: Effect of indolocarbazole esters on ChAT activity in dissociated spinal cord cultures. In kind it is cell-based, rat. The protocol: The effect of indolocarbazole esters of the invention on ChAT activity was assayed in dissociated spinal cord cultures prepared from fetal rats. ChAT is the enzyme that catalyzes the synthesis of the neurotransmitter acetylcholine, and it is a specific biochemical marker for cholinergic neurons. In the spinal cord, the large majority of cholinergic neurons are motor neurons. Assay of this enzyme may thus be used as an indication of the effects of a factor (or factors) on the survival and/or differentiation of cholinergic neurons and/or regulation of this enzyme. The procedure used for the assay is that described in Example 6 of WO 94/02488. Fourteen esters were tested in the spinal cord ChAT assay to determine their relative efficacy, and the results are summarized in Table 4.

Data set [6] is described as follows: Stability of the esters in buffered solution (conversion to indolocarbazole I-5, HPLC). In kind it is physicochemical. Conditions: buffer solutions, 24 hours. The protocol: Solution 5 was a DMSO control.
HPLC conditions were as follows:
The pH of the compounds in water varied from 2 to 5 while the buffers remained approximately the same at 3.6, 6.7 and 7.8 for the 10 mM acetate, phosphate and Tris, respectively.
Acetate buffers at pH 2, 3, 4, 5 and 6 were prepared as follows. A total of 6.8 g of sodium acetate trihydrate was added to one liter of water, and the mixture was stirred until the solid was completely dissolved. One hundred ml aliquots were placed into 150 ml Erlenmeyer flasks, and the pH values were adjusted with HCl to pH 2, 3, 4, 5, and 6. A concentration of 50 mM was chosen to reduce the effects of compound addition. The indolocarbazole ester of Example 14 was investigated only with the acetate buffers. The rates of conversion of I-5 (the appearance of indolocarbazole I-5) as a function of pH are shown in FIGS. 3, 4, and 5 for the indolocarbazole esters of Examples 14, 8, and 11, respectively.

The subject of data set [7] is Dunning R-3327 AT-2 rat prostate tumor. Description: Anti-tumor efficacy against the androgen-independent AT-2 rat prostate tumor. In kind it is in vivo. The conditions noted are these: for Tumor volume Day 0: Day 0, daily sc dosing; for Tumor volume Day 0 / Tumor volume Day 3 / Tumor volume Day 6 / Tumor volume Day 9 / Tumor volume Day 13: Mean ± SE; for Tumor volume Day 3: Day 3, daily sc dosing; for Tumor volume Day 6: Day 6, daily sc dosing; for Tumor volume Day 9: Day 9, daily sc dosing; for Tumor volume Day 13: Day 13, daily sc dosing; for inhibiting the growth of AT-2 tumors: adult male Copenhagen rats; for inhibition of tumor growth: by Day 13 of dosing. As to the method: Rat prostate cancer Dunning R-3327 AT-2.1 cells (Isaacs et al., Prostate 9:261-281, 1986) were grown at 37 C. in a humidified incubator, with a 95% air/5% CO2 atmosphere, in RPMI-1640 medium containing 10% fetal calf serum, 250 nM dexamethasone, 2 mM glutamine, penicillin (100 I.U./mL), and streptomycin (100 μg/mL), and 1 mM sodium pyruvate. The cells were determined to be free of mycoplasma and rodent viruses (MAP testing) by Microbiological Associates. Exponentially growing cells were harvested using 6 mL of warm trypsin. The total volume was brought up to 10 mL with media to neutralize trypsin and cells were counted. The cells were then collected by brief centrifugation, and cell pellet was resuspended in Hanks' Balanced Salt Solution to achieve the final concentration of 1×10^7 live cells/mL.
Male inbred Copenhagen rats (200-225 g) obtained from Harlan Sprague-Dawley, Indianapolis, Ind., were maintained three rats/cage and given a commercial diet (Purina Formulab 5001) and water ad libitum. Animals were housed under humidity- and temperature-controlled conditions and light/dark cycle was set at 12-hour intervals. Rats were quarantined for one week before experimental manipulation. Tumor cell implantation and growth
Fifty adult male Copenhagen rats were inoculated with live AT-2 cells (1×10^6 cells/rat) into their right flank. Seven days later, rats bearing AT-2 tumors (approximately 0.5‥0.7 cm^3 in volume) were divided into five groups of ten animals each. A description of the experimental groups is given below. Dosing volumes of either I-5 or its lysyl-β-alaninate ester (1 mL/kg) were based on the average weight of the animals in each dosing group and were adjusted as necessary twice a week. Tumors were measured in anesthetized animals (isofluorane vapor for approximately 1-2 minutes) every 3-4 days using a vernier caliper. Tumor volume was calculated using the formula:
V(cm)=0.5236×length(cm)×width(cm)[(length(cm)+width(cm))/2].
Indolocarbazole I-5 was dissolved in vehicle defined below:
(I-5)-Lysyl-β-alaninate was dissolved in 50 mM sodium acetate buffer, pH 5.5.

Data set [8] shares this test system. Conditions: see WO 94/27982; cited from earlier work.
Data set [9] is described as follows: Route-to-route comparison of indolocarbazole I-5 formation from lysyl-β-alaninate in rats. In kind it is in vivo, rat. The conditions noted are these: for plasma levels of indolocarbazole I-5: intravenous 8.01 mg/kg. As to the method: Groups of 12 male Sprague-Dawley rats were administered lysyl-β-alaninate dihydrochloride via intravenous or subcutaneous injection, as well as by oral gavage at a dose of 8.01 mg/kg. This dose was designed to deliver a 5 mg/kg equivalent dose of indolocarbazole I-5 following complete hydrolysis of the indolocarbazole ester. The volume of the dosing solution was adjusted on the basis of body weight. At 5, 30, 60, and 120 minutes after intravenous injection and 30, 60, 120, and 240 minutes after either subcutaneous injection or oral gavage, the animals were anesthetized with carbon dioxide and a sample of whole blood was obtained by cardiac puncture. The blood was placed into a heparinized container containing 100 μL 50% potassium fluoride (an inhibitor of plasma esterases) and 10 μL phenylmethylsulfonylfluoride (an inhibitor of plasma amidase). Following centrifugation, the resulting plasma was frozen in a dry-ice/isopropanol bath and kept frozen at −90° C. prior to analysis.
For analysis, the samples were thawed, internal standard was added, and the mixture was extracted with 5 mL methylene chloride. Standards in rat plasma were prepared as described previously. All tubes (standards and experimentals) were extracted for 15 minutes by shaking, and centrifuged. The methylene chloride layer was removed, dried under a stream of nitrogen, and reconstituted in DMSO. Fifty μL of the reconstituted extracts was analyzed by reverse-phase HPLC with detection at 290 nm. The mobile phase and gradient conditions are the same as those given in Example 17.

`COC1(COC(=O)CCN)CC2OC1(C)n1c3ccccc3c3c4c(c5c6ccccc6n2c5c31)C(=O)NC4.Cl` (stereo not drawn) [Example 11, (I-5)-β-Alaninate Hydrochloride]: the “hydrolysis of the ester” value in data set [1] was “rate of hydrolysis was markedly reduced”. Moreover, in [2], the rates of hydrolysis entry was “similar”. Also, in [3], the “hydrolysis to indolocarbazole I-5 in vivo” value is “rapidly hydrolyzed” and the “time ester could be detected in plasma following administration” value is “one”. Moreover, in [4], the “solubility in Tris buffer” value was “not completely soluble”, the “solubility in acetate buffer” value is “completely soluble”, the “solubility in phosphate buffer” value was “not completely soluble” and the solubility in water entry is reported as “completely soluble”. Besides, in [5], the “Spinal Cord ChAT Activity (% of Control) 500 nM” value was 138 % of Control and the “Spinal Cord ChAT Activity (% of Control) 1000 nM” value is listed as 149 % of Control.
Turning to `COC1(COC(=O)CC(C)N(C)C)CC2OC1(C)n1c3ccccc3c3c4c(c5c6ccccc6n2c5c31)C(=O)NC4.Cl` (stereo not shown) [Example 8, (I-5)-Dimethylaminobutyrate Hydrochloride], the “hydrolysis of the ester” value in [1] is “rapid hydrolysis”. For the same compound, the rates of hydrolysis entry in data set [2] is given as “similar”. For the same compound, in data set [3], the “hydrolysis to indolocarbazole I-5 in vivo” value is listed as “rapidly hydrolyzed” and the “time ester could be detected in plasma following administration” value is listed as “two”. In data set [4], the “solubility in Tris buffer” value is given as “not completely soluble”, the “solubility in acetate buffer” value is recorded as “completely soluble”, the “solubility in phosphate buffer” value is “not completely soluble” and the solubility in water entry is given as “completely soluble”. For the same compound, the “rate of conversion to indolocarbazole I-5” value in [6] is “low rate of conversion”. In [5], the “Spinal Cord ChAT Activity (% of Control) 500 nM” value is “inactive” and the “Spinal Cord ChAT Activity (% of Control) 1000 nM” value is 138 % of Control.
For `COC1(CO)CC2OC1(C)n1c3ccccc3c3c4c(c5c6ccccc6n2c5c31)C(=O)NC4` (stereo not shown) [Example I-5, reference compound], in data set [7], the “Tumor volume Day 0” value was 0.7 ± 0.1 cm^3, the “Tumor volume Day 3” value was 1.6 ± 0.2 cm^3, the “Tumor volume Day 6” value is 2.1 ± 0.1 cm^3 and the “Tumor volume Day 9” value stood at 5.4 ± 0.7 cm^3. Further, in data set [7], the “Tumor volume Day 13” value is 11.6 ± 1.8 cm^3, the “inhibiting the growth of AT-2 tumors” value is “effective” and the “inhibition of tumor growth” value is 53%. For the same compound, in data set [8], the “growth inhibition of Dunning R-3327 AT-2 rat prostate tumor in vivo” value is “growth inhibitory properties”.
In the case of `COC1(COC(=O)CCNC(=O)C(N)CCCCN)CC2OC1(C)n1c3ccccc3c3c4c(c5c6ccccc6n2c5c31)C(=O)NC4.Cl.Cl` (stereo not drawn) [Example 14, (I-5)-Lysyl-β-Alaninate Dihydrochloride], the “hydrolysis of the ester” value in data set [1] is given as “initial hydrolysis of the amide bond between the two amino acids appears to be the first metabolic event followed by hydrolysis of the ester linkage”. Moreover, in data set [4], the “solubility in Tris buffer” value is “completely soluble”, the “solubility in acetate buffer” value is listed as “completely soluble”, the “solubility in phosphate buffer” value is recorded as “completely soluble” and the solubility in water entry is listed as “completely soluble”. For the same compound, in [7], the “Tumor volume Day 0” value is on record as 0.6 ± 0.1 cm^3, the “Tumor volume Day 3” value is 1.5 ± 0.2 cm^3, the “Tumor volume Day 6” value amounted to 2.1 ± 0.2 cm^3 and the “Tumor volume Day 9” value worked out at 4.8 ± 0.6 cm^3. Also, in [7], the “Tumor volume Day 13” value is listed as 8.3 ± 0.5 cm^3, the “inhibiting the growth of AT-2 tumors” value is “effective” and the “inhibition of tumor growth” value was determined as 72%. In data set [9] (5 minutes after dosing), the “plasma levels of indolocarbazole I-5” value was “approximately 600 ng/mL”. Further, in data set [9] (2 hours after dosing), the “plasma levels of indolocarbazole I-5” value is listed as “approximately 80 ng/mL”. Further, the “plasma levels of I-5” value in data set [9] (oral dose 8.01 mg/kg, limit of quantitation) is below 50 ng/mL. In [9] (rat), the “conversion to I-5 in vivo” value was “rapidly converted”. For the same compound, the “plasma levels of I-5” value in data set [9] (subcutaneous 8.01 mg/kg, all time points examined) was “approximately 70 ng/mL”. The “rate of conversion to indolocarbazole I-5” value in [6] is given as “low rate of conversion”. In data set [5], the “Spinal Cord ChAT Activity (% of Control) 500 nM” value was 121 % of Control and the “Spinal Cord ChAT Activity (% of Control) 1000 nM” value is given as 147 % of Control.
